The text below walks through data of ChEMBL document CHEMBL3044604, “Synthesis of some substituted furan-2(5H)-ones and derived quinoxalinones as potential anti-microbial and anti-cancer agents” (Med Chem Res, 2011).

The target of assay [1] is Cyclin-dependent kinase 5/CDK5 activator 1 (Homo sapiens, UniProt Q00535). As to the kind of experiment: Inhibition of CDK5/p25 (unknown origin). It is filed as protein-complex assay.
The subject of assay [2] is Escherichia coli. As to the kind of experiment: Antibacterial activity against Escherichia coli NCTC 10418 incubated for 48 hr followed by subculturing measured after 18 hr. The assay is classed as functional.
In assay [3] the test system is Pseudomonas aeruginosa. Kind of assay: Antibacterial activity against Pseudomonas aeruginosa ATCC 9027 after 48 hr by two-fold serial dilution method. It is filed as functional. Conditions: ATCC 9027, 48 h.
The test system of assay [4] is Staphylococcus aureus. Kind of assay: Antibacterial activity against Staphylococcus aureus ATCC 6538 incubated for 48 hr followed by subculturing measured after 18 hr. The assay is classed as functional.
In assay [5] the test system is Pseudomonas aeruginosa. As to the kind of experiment: Antibacterial activity against Pseudomonas aeruginosa ATCC 9027 at 1 mg/ml after 24 hr by agar cup diffusion method. It is filed as functional. Conditions: ATCC 9027, 24 h, read-out: DIZ.
Another assay concerns Candida albicans. Kind of assay: Antifungal activity against Candida albicans ATCC 10231 at 1 mg/ml after 24 hr by agar cup diffusion method. The assay is classed as functional. Particulars: ATCC 10231, 24 h, read-out: DIZ.
In assay [6] the test system is Escherichia coli. As to the kind of experiment: Antibacterial activity against Escherichia coli NCTC 10418 at 1 mg/ml after 24 hr by agar cup diffusion method. The assay is classed as functional. Particulars: NCTC 10418, 24 h, read-out: DIZ.
The target of assay [7] is Glycogen synthase kinase-3 (Homo sapiens, UniProt P49840+P49841). As to the kind of experiment: Inhibition of GSK3alpha/beta (unknown origin). It is filed as protein assay.
Assay [8] is described as follows: Inhibition of Marthasterias glacialis CDK1/cyclin B using histone H1 as substrate and [gamma32P]ATP after 10 min by scintillation counting.
Assay [9] relates to Staphylococcus aureus. As to the kind of experiment: Antibacterial activity against Staphylococcus aureus ATCC 6538 after 48 hr by two fold serial dilution method. The assay is classed as functional. Particulars: ATCC 6538, 48 h.
Assay [10] concerns Escherichia coli. As to the kind of experiment: Antibacterial activity against Escherichia coli NCTC 10418 after 48 hr by two-fold serial dilution method. The assay is classed as functional. Particulars: NCTC 10418, 48 h.
Assay [11] concerns Staphylococcus aureus. As to the kind of experiment: Antibacterial activity against Staphylococcus aureus ATCC 6538 at 1 mg/ml after 24 hr by agar cup diffusion method. The assay is classed as functional. Conditions: ATCC 6538, 24 h, read-out: DIZ.
In assay [12] the test system is Pseudomonas aeruginosa. As to the kind of experiment: Antibacterial activity against Pseudomonas aeruginosa ATCC 9027 incubated for 48 hr followed by subculturing measured after 18 hr. It is filed as functional.

pIC50: −log10 of the molar value. Converted amounts (≈) assume the structure as drawn.

Sequence of Cyclin-dependent kinase 5/CDK5 activator 1 (Q00535 whole entry): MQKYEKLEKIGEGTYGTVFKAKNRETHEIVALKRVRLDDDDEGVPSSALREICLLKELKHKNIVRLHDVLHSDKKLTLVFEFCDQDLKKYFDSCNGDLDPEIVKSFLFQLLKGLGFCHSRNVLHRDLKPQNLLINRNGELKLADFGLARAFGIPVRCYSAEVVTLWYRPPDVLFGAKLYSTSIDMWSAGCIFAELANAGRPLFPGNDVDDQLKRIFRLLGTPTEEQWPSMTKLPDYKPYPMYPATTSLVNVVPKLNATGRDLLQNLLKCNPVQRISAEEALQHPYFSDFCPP
Sequence of Cyclin-dependent kinase 5/CDK5 activator 1 (Q15078 whole entry, further chain): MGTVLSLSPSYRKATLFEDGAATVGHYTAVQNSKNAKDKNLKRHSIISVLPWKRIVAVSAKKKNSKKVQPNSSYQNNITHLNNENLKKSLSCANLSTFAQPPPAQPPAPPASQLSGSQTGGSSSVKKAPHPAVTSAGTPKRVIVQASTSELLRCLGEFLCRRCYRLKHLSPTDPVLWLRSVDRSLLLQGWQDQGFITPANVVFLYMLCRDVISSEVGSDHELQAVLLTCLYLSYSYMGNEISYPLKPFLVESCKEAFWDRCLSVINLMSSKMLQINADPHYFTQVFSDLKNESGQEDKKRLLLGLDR

What is called pIC50 is −log10 of the IC50, conventionally taken in molar units. Usually MBC stands for the lowest tested concentration that kills the bacteria rather than only halting them. Read a low MBC as greater bactericidal potency. A word on the MIC: it is the least concentration at which growth counts as inhibited. Read a high MIC as a less susceptible organism. Usually IC50 stands for the concentration at which inhibition is half-maximal. For the molecule `O=C(COC1=C(Br)C(c2ccccc2)OC1=O)NCc1ccccc1` (stereo not drawn), the pIC50 in assay [1] and in assay [8] was < 5.00 in each case. In addition, the minimal bactericidal concentration (MBC) came to 15.6 µg/mL (≈ 38.8 µM) in the assay on Escherichia coli [2], 15.6 µg/mL (≈ 38.8 µM) in the assay with Staphylococcus aureus [4] and 31.2 µg/mL (≈ 77.7 µM) in the assay on Pseudomonas aeruginosa [12]. The MIC in the assay with Pseudomonas aeruginosa [3], in the assay on Staphylococcus aureus [9] and with Escherichia coli [10] was 7.81 µg/mL (≈ 19.4 µM) in each case. Further, the zone of inhibition at 1000 µg/mL with Pseudomonas aeruginosa [5] was 25 mm; with Candida albicans, 17 mm; in the assay with Escherichia coli [6], 24 mm; with Staphylococcus aureus [11], 23 mm. The IC50 in [7] is > 10 µM.
